# In ChEMBL document CHEMBL3045792, “Synthesis, antimicrobial activity, and molecular modeling of novel 4-(3-(4-benzylpiperazin-1-yl)propoxy)-7-methoxy-3-substituted phenyl-2H-chromen-2-one” (2013):
# Activity calls are given as the source filed them. The rule behind the calls is not given here.
# Legend:
# Format in all cases: functional
# Bacillus subtilis [1] = experiment: Antibacterial activity against Bacillus subtilis assessed as growth inhibition at 900 ug/ml by NCCLS […] method; conditions: read-out: IZ
# Proteus vulgaris [2] = experiment: Antibacterial activity against Proteus vulgaris assessed as growth inhibition at 600 ug/ml by NCCLS […] method; conditions: read-out: IZ
# Fusarium oxysporum [3] = experiment: Antifungal activity against Fusarium oxysporum assessed as growth inhibition at 600 ug/ml
# Exserohilum rostratum [4] = experiment: Antifungal activity against Setosphaeria rostrata assessed as growth inhibition at 900 ug/ml; conditions: read-out: IZ
# Klebsiella aerogenes [5] = experiment: Antibacterial activity against Enterobacter aerogenes assessed as growth inhibition at 900 ug/ml by NCCLS […] method; conditions: read-out: IZ
# Klebsiella pneumoniae [6] = experiment: Antibacterial activity against Klebsiella pneumoniae assessed as growth inhibition at 600 ug/ml by NCCLS […] method; conditions: read-out: IZ
# Bacillus subtilis [7] = experiment: Antibacterial activity against Bacillus subtilis assessed as growth inhibition at 600 ug/ml by NCCLS […] method; conditions: read-out: IZ
# Exserohilum rostratum [8] = experiment: Antifungal activity against Setosphaeria rostrata assessed as growth inhibition at 300 ug/ml; conditions: read-out: IZ
# Colletotrichum falcatum [9] = experiment: Antifungal activity against Glomerella tucumanensis assessed as growth inhibition at 300 ug/ml
# Priestia megaterium [10] = experiment: Antibacterial activity against Bacillus megaterium assessed as growth inhibition at 600 ug/ml by NCCLS […] method
# Klebsiella pneumoniae [11] = experiment: Antibacterial activity against Klebsiella pneumoniae assessed as growth inhibition at 900 ug/ml by NCCLS […] method; conditions: read-out: IZ
# Exserohilum rostratum [12] = experiment: Antifungal activity against Setosphaeria rostrata assessed as growth inhibition at 600 ug/ml; conditions: read-out: IZ
# Streptococcus pyogenes [13] = experiment: Antibacterial activity against Streptococcus pyogenes assessed as growth inhibition at 600 ug/ml by NCCLS […] method; conditions: read-out: IZ
# Staphylococcus aureus [14] = experiment: Antibacterial activity against Staphylococcus aureus assessed as growth inhibition at 600 ug/ml by NCCLS […] method; conditions: read-out: IZ
# Escherichia coli [15] = experiment: Antibacterial activity against Escherichia coli assessed as growth inhibition at 900 ug/ml by NCCLS […] method; conditions: read-out: IZ
# Colletotrichum falcatum [16] = experiment: Antifungal activity against Glomerella tucumanensis assessed as growth inhibition at 1200 ug/ml
# Colletotrichum falcatum [17] = experiment: Antifungal activity against Glomerella tucumanensis assessed as growth inhibition at 900 ug/ml
# Candida albicans [18] = experiment: Antifungal activity against Candida albicans assessed as growth inhibition at 1200 ug/ml; conditions: read-out: IZ
# Fusarium oxysporum [19] = experiment: Antifungal activity against Fusarium oxysporum assessed as growth inhibition at 1200 ug/ml
# Colletotrichum falcatum [20] = experiment: Antifungal activity against Glomerella tucumanensis assessed as growth inhibition at 600 ug/ml
# Fusarium oxysporum [21] = experiment: Antifungal activity against Fusarium oxysporum assessed as growth inhibition at 900 ug/ml
# Proteus mirabilis [22] = experiment: Antibacterial activity against Proteus mirabilis assessed as growth inhibition at 900 ug/ml by NCCLS […] method; conditions: read-out: IZ
# Bacillus pumilus [23] = experiment: Antibacterial activity against Bacillus pumilus assessed as growth inhibition at 600 ug/ml by NCCLS […] method
# Escherichia coli [24] = experiment: Antibacterial activity against Escherichia coli assessed as growth inhibition at 600 ug/ml by NCCLS […] method; conditions: read-out: IZ
# Streptococcus pyogenes [25] = experiment: Antibacterial activity against Streptococcus pyogenes assessed as growth inhibition at 900 ug/ml by NCCLS […] method; conditions: read-out: IZ
# Candida albicans [26] = experiment: Antifungal activity against Candida albicans assessed as growth inhibition at 900 ug/ml; conditions: read-out: IZ
# Fusarium oxysporum [27] = experiment: Antifungal activity against Fusarium oxysporum assessed as growth inhibition at 300 ug/ml
# Candida albicans [28] = experiment: Antifungal activity against Candida albicans assessed as growth inhibition at 600 ug/ml; conditions: read-out: IZ
# Klebsiella aerogenes [29] = experiment: Antibacterial activity against Enterobacter aerogenes assessed as growth inhibition at 600 ug/ml by NCCLS […] method; conditions: read-out: IZ
# Priestia megaterium [30] = experiment: Antibacterial activity against Bacillus megaterium assessed as growth inhibition at 900 ug/ml by NCCLS […] method
# Staphylococcus aureus [31] = experiment: Antibacterial activity against Staphylococcus aureus assessed as growth inhibition at 900 ug/ml by NCCLS […] method; conditions: read-out: IZ
# Proteus mirabilis [32] = experiment: Antibacterial activity against Proteus mirabilis assessed as growth inhibition at 600 ug/ml by NCCLS […] method; conditions: read-out: IZ
# Exserohilum rostratum [33] = experiment: Antifungal activity against Setosphaeria rostrata assessed as growth inhibition at 1200 ug/ml; conditions: read-out: IZ
# Proteus vulgaris [34] = experiment: Antibacterial activity against Proteus vulgaris assessed as growth inhibition at 900 ug/ml by NCCLS […] method; conditions: read-out: IZ
# Bacillus pumilus [35] = experiment: Antibacterial activity against Bacillus pumilus assessed as growth inhibition at 900 ug/ml by NCCLS […] method
# Candida albicans [36] = experiment: Antifungal activity against Candida albicans assessed as growth inhibition at 300 ug/ml; conditions: read-out: IZ
SMILES,zone of inhibition at 900 µg/mL (Bacillus subtilis [1]),zone of inhibition at 600 µg/mL (Proteus vulgaris [2]),zone of inhibition at 900 µg/mL (Exserohilum rostratum [4]),zone of inhibition at 900 µg/mL (Klebsiella aerogenes [5]),zone of inhibition at 600 µg/mL (Klebsiella pneumoniae [6]),zone of inhibition at 600 µg/mL (Bacillus subtilis [7]),zone of inhibition at 300 µg/mL (Exserohilum rostratum [8]),zone of inhibition at 900 µg/mL (Klebsiella pneumoniae [11]),zone of inhibition at 600 µg/mL (Exserohilum rostratum [12]),zone of inhibition at 600 µg/mL (Streptococcus pyogenes [13]),zone of inhibition at 600 µg/mL (Staphylococcus aureus [14]),zone of inhibition at 900 µg/mL (Escherichia coli [15]),zone of inhibition at 1200 µg/mL (Candida albicans [18]),zone of inhibition at 900 µg/mL (Proteus mirabilis [22]),zone of inhibition at 600 µg/mL (Escherichia coli [24]),zone of inhibition at 900 µg/mL (Streptococcus pyogenes [25]),zone of inhibition at 900 µg/mL (Candida albicans [26]),zone of inhibition at 600 µg/mL (Candida albicans [28]),zone of inhibition at 600 µg/mL (Klebsiella aerogenes [29]),zone of inhibition at 900 µg/mL (Staphylococcus aureus [31]),also measured
COc1ccc2c(OCCCN3CCN(Cc4ccc(Br)cc4)CC3)c(-c3ccccc3)c(=O)oc2c1,4.16 mm,5.02 mm,15.6 mm,6.8 mm,2.89 mm,2.08 mm,4.56 mm,6.24 mm,8.12 mm,6.25 mm,4.25 mm,4.01 mm,19.6 mm,5.02 mm,2 mm,13.1 mm,10.1 mm,5.84 mm,3.25 mm,8 mm,zone of inhibition at 600 µg/mL (Fusarium oxysporum [3]; read-out: IZ): 6.15 mm; zone of inhibition at 300 µg/mL (Colletotrichum falcatum [9]; read-out: IZ): 5.62 mm; zone of inhibition at 600 µg/mL (Priestia megaterium [10]; read-out: IZ): 6.25 mm; zone of inhibition at 1200 µg/mL (Colletotrichum falcatum [16]; read-out: IZ): 33.8 mm; zone of inhibition at 900 µg/mL (Colletotrichum falcatum [17]; read-out: IZ): 19.4 mm; zone of inhibition at 1200 µg/mL (Fusarium oxysporum [19]; read-out: IZ): 29.4 mm; zone of inhibition at 600 µg/mL (Colletotrichum falcatum [20]; read-out: IZ): 9.76 mm; zone of inhibition at 900 µg/mL (Fusarium oxysporum [21]; read-out: IZ): 14.2 mm; growth inhibition (GI) (Bacillus pumilus [23]): inactive; zone of inhibition at 300 µg/mL (Fusarium oxysporum [27]; read-out: IZ): 3.56 mm; zone of inhibition at 900 µg/mL (Priestia megaterium [30]; read-out: IZ): 12.1 mm; zone of inhibition at 600 µg/mL (Proteus mirabilis [32]): 4.28 mm; zone of inhibition at 1200 µg/mL (Exserohilum rostratum [33]): 31.3 mm; zone of inhibition at 900 µg/mL (Proteus vulgaris [34]): 10.2 mm; growth inhibition (GI) (Bacillus pumilus [35]): inactive; zone of inhibition at 300 µg/mL (Candida albicans [36]): 3.02 mm
COc1ccc2c(OCCCN3CCN(Cc4ccccc4)CC3)c(-c3ccccc3)c(=O)oc2c1,12 mm,6.54 mm,15.8 mm,7.53 mm,2.56 mm,6.56 mm,4.25 mm,4.98 mm,8.56 mm,6.54 mm,7.89 mm,5.76 mm,22.3 mm,11.3 mm,2.98 mm,11.9 mm,12 mm,5.43 mm,3.8 mm,11.2 mm,growth inhibition (GI) (Fusarium oxysporum [3]): inactive; growth inhibition (GI) (Colletotrichum falcatum [9]): inactive; growth inhibition (GI) (Priestia megaterium [10]): inactive; growth inhibition (GI) (Colletotrichum falcatum [16]): inactive; growth inhibition (GI) (Colletotrichum falcatum [17]): inactive; growth inhibition (GI) (Fusarium oxysporum [19]): inactive; growth inhibition (GI) (Colletotrichum falcatum [20]): inactive; growth inhibition (GI) (Fusarium oxysporum [21]): inactive; zone of inhibition at 600 µg/mL (Bacillus pumilus [23]; read-out: IZ): 2.27 mm; growth inhibition (GI) (Fusarium oxysporum [27]): inactive; growth inhibition (GI) (Priestia megaterium [30]): inactive; zone of inhibition at 600 µg/mL (Proteus mirabilis [32]): 5.55 mm; zone of inhibition at 1200 µg/mL (Exserohilum rostratum [33]): 24.6 mm; zone of inhibition at 900 µg/mL (Proteus vulgaris [34]): 12.8 mm; zone of inhibition at 900 µg/mL (Bacillus pumilus [35]; read-out: IZ): 4.21 mm; zone of inhibition at 300 µg/mL (Candida albicans [36]): 2.87 mm
